Experimental findings from patent US12152057B2, “Fusion proteins for inhibiting angiogenesis” (priority 2015, dated 2024) are described below.

Assay [1] addresses integrin αvβ3 (Homo sapiens, UniProt P05106+P06756). As to the kind of experiment: Competitive binding ELISA of soluble integrin αvβ3 to vitronectin. Particulars: vitronectin-coated plate. The method, then:
The competitive binding was used to measure the binding affinity of Fusion Protein 1 of the invention to integrin αvβ3.
1 μg/mL victronectin dissolved in coating solution were added to each well of a 96-well ELISA plate, and the plate was incubated overnight at 4° C. The wells were washed twice with PBS buffer, and excess liquid was carefully removed with a paper towel.
Blocking solution (5 g non-fat skim milk in 100 mL 1×PBS) were added to each well, and the plate was incubated at room temperature for 1 hour. The wells were washed twice with 1×PBS buffer.
One hundred microliters […] of the serially diluted samples were added to each well. The plate was covered and incubated on a plate shaker (˜100 rpm) for 1 hour at room temperature. The wells were washed three times with wash buffer (1×PBS, 0.05% Tween-20).
Diluted primary anti-integrin αv antibody was added and incubated, then washed. Horseradish peroxidase-conjugated goat anti-human IgG Fc specific antibodies in blocking solution were added to each well. […]
The optical density (OD) of each well was determined using an ELISA plate reader at an absorbance wavelength of 450 nm. The absorbance was plotted against the protein concentration of the fusion protein or the control, and the concentration at which the signal was half the maximal inhibition concentration (IC50) was determined.
(An ELISA detects its analyte on a solid surface through an enzyme-linked reagent.)

The target of assay [2] is T1, integrin α5β1 (K562 cells) (Homo sapiens, UniProt P05556+P08648).
T1 construct: α5β1-expressing K562 cells to fibronectin; host or cells: K562 human erythroleukemia cells
As to the kind of experiment: Adhesion of α5β1-expressing K562 cells to fibronectin. It counts as cell-based. The conditions noted are these: K562 cell adhesion to fibronectin. The procedure:
(§1) The adhesion of αvβ3-overexpressing CHO cells to fibrinogen and α5β1-expressing K562 cells to fibronectin were evaluated in the presence of fusion proteins.
(§2) 96-well Immulon-2 microtiter plates (Costar, Corning, NY) were coated with 100 μL of phosphate-buffered saline (PBS: 10 mM phosphate buffer, 0.15 M NaCl, pH 7.4) containing substrates at a concentration of 50-500 nM, and incubated overnight at 4° C. The substrates and their coating concentrations were fibrinogen (Fg) at 200 μg/mL and fibronectin (Fn) at 25 μg/mL. Non-specific protein binding sites were blocked by incubating each well with 200 μL of heat-denatured 1% bovine serum albumin (BSA) (Calbiochem) at room temperature for 1.5 hours. The heat-denatured BSA was discarded and each well was washed twice with 200 μL of PBS.
(§3) CHO cells that expressed the integrin αvβ3 (CHO-αvβ3) from the same source of Patent Application No. PCT/US2015/46322 were maintained in DMEM. Human erythroleukemia K562 was maintained as written in Patent Application No. PCT/US2015/46322 from ATCC and cultured in Roswell Park Memorial Institute (RPMI)-1640 medium containing 5% FCS. […] Bound cells were quantified by crystal violet staining. […] The resulting absorbance was read at 600 nm and the readings were correlated with the number of adhering cells. […]

Assay [3] concerns integrin αvβ3 (CHO-αvβ3 cells). In words: Adhesion of αvβ3-overexpressing CHO cells to fibrinogen. It counts as cell-based. Particulars: CHO-αvβ3 cell adhesion to fibrinogen. The procedure: as §1, §2, §3
Assay [4] deals with VEGF-induced leakage in Dutch Belted Rabbits. In words: VEGF-induced retinal leakage in Dutch Belted rabbits (Example 8). It counts as in vivo. Particulars: FA scale 0 (normal) to 4 (severe). The procedure:
Fusion proteins of the invention were tested in an in vivo model of vascular permeability to determine their efficacy in preventing vascular leakage. In this model, VEGF was intravitreally injected to the vitreous of rabbit eyes to induce uncontrolled retinal leakage. Aflibercept (Eylea®, Regeneron), a recombinant fusion protein consisting of portions of human VEGFR1 and VEGFR2 fused to the Fc portion of human IgG1, and bevacizumab (Avastin®, Roche), a recombinant humanized monoclonal antibody that blocks angiogenesis by inhibiting VEGF-A were included as Positive Controls 2 and 6, respectively.
Dutch Belted rabbits were anesthetized using isoflurane (3-5%), and their eyes were treated with ophthalmic Betadine solution. The rabbits' eyes were then washed with sterile saline, and lidocaine hydrochloride (2% injectable) or proparacaine (0.5%) was applied to the ocular surface.
On Day 1, Dutch Belted rabbits were intravitreally injected with fusion proteins of the invention, vehicle (negative) control, or reference (positive) controls at predetermined doses using a BD 300 μL insulin syringe (31 ga× 5/16 inch). […]
Signs of ocular irritation were scored using the Draize scoring system prior to fusion protein dosing, VEGF induction, and assessments. […]

For assay [5] the test system is unchanged. In words: Dose-response VEGF-induced retinal leakage in Dutch Belted rabbits (Example 9). Format: in vivo. The conditions noted are these: FA scale 0 (normal) to 4 (severe). The procedure: Fusion proteins of the invention were tested in an in vivo model of retinal vascular permeability at varying doses to determine their dose-response effectiveness in preventing vascular leakage. In this model, human VEGF165 was intravitreally injected to the vitreous of rabbit eyes to induce retinal leakage.
On Day 1, Dutch Belted rabbits were intravitreally injected with Fusion Protein 1 according to an embodiment of the invention at various doses, vehicle (negative) control, or reference (positive) controls. Vascular leakage was induced by injecting exogenous VEGF165 into the same eyes on Day 3.
FAs were conducted on all dosage groups 3 days after the VEGF-induction (Day 6) to assess leakiness and tortuosity using a scale from 0 (normal) to 4 (severe).
Signs of ocular irritation were scored using the Draize scoring system prior to fusion protein dosing, VEGF induction, and assessments. According to the Draize analysis, all of the rabbit eyes were normal prior to the initiation of dosing. […] There were no drug-related findings evident during the course of the study.

Assay [6] relates to HUVECs. In words: HUVEC tube formation on matrigel. It counts as cell-based. Particulars: Homo sapiens, 18-hour incubation, read-out: IC50 (μM), inhibition of tube formation. The method, then: HUVECs (1.5×10^4 cells/well) were placed in a 96-well matrigel-coated plate. Six doses of Fusion Protein 1 (0.1 μM, 0.3 μM, 1 μM, 3 μM, 10 μM, and 30 μM) and vehicle were added to each well in growth media under an atmosphere of 5% CO2 at 37° C. After an 18-hour incubation period, morphology of the endothelial cell tubes, which resemble a capillary-like network, were evaluated by photomicroscopy. Disruption (anti-angiogenesis) of total tube length was measured from each photograph and determined relative to the vehicle control group. […] Suramin was used as an anti-angiogenic positive control (Positive Control 5) for all studies.

In assay [7] the target is T2, human VEGF165 (Homo sapiens, UniProt P15692).
T2 sequence (P15692 27-191 isoform P15692-4): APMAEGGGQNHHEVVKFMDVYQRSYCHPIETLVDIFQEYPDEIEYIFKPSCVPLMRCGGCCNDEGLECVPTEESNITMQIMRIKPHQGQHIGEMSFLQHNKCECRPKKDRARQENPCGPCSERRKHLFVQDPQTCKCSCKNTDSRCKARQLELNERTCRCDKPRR
As to the kind of experiment: Direct binding ELISA to human VEGF165. Particulars: coated VEGF165 1 μg/mL, read-out: EC50 (nM), binding affinity to VEGF165. The method, then: A direct binding enzyme-linked immunosorbent assay (ELISA) was used to measure the binding affinity of fusion proteins of the invention to human VEGF165, a splice variant of VEGF-A.
100 μL of a coating solution (1 μg/mL VEGF165 in 1× phosphate buffered saline (PBS), pH 7.2) were added to each well of a 96-well ELISA plate, and the plate was incubated overnight at 4° C. The wells were washed twice with 400 μL of 1×PBS buffer, and excess liquid was carefully removed with a paper towel.
400 μL of a blocking solution (5 g non-fat skim milk in 100 mL 1×PBS) were added to each well, and the plate was incubated at room temperature for 1 hour. The wells were washed twice with 1×PBS buffer.
Fusion protein and control samples were serially diluted three-fold in blocking solution, with a highest protein concentration of 10 nM. 100 μL of the serially diluted samples were added to each well. The plate was covered and incubated on a plate shaker (˜100 rpm) for 1 hour at room temperature. The wells were washed three times with wash buffer (1×PBS, 0.05% Tween-20). […]
The optical density (OD) of each well was determined using an ELISA plate reader at an absorbance wavelength of 450 nm. The absorbance was plotted against the protein concentration of the fusion protein or the control, and the concentration at which the signal was half the maximal effective concentration (EC50) was determined.

Assay [8] concerns human umbilical vein endothelial cell (HUVEC). As to the kind of experiment: VEGF165-induced HUVEC proliferation assay (MTS). It counts as cell-based. The conditions noted are these: VEGF165 8 ng/mL, 72 hours, read-out: IC50 (nM), inhibition of cell proliferation. The procedure:
A human umbilical vein endothelial cell (HUVEC) proliferation assay was carried out to test the functionality of the fusion proteins of the invention. A commercially available VEGF Trap, aflibercept (Eylea®, Regeneron), was included as Positive Control 2.
100 μL of a coating solution (1% gelatin in double distilled water) were added to each well of a 96-well ELISA plate, and the plate was incubated for 2 hours or overnight at 37° C. The wells were washed twice with 1×PBS buffer.
3500 counts of human umbilical vein endothelial cells in endothelial cell growth medium were added to each well, and the plate was incubated overnight at 37° C.
Fusion protein samples were diluted in assay buffer (Medium-199 1× Earle's Salts, 10% fetal bovine serum, 10 mM HEPES, lx antibiotic/antimycotic), with a highest protein concentration of 300 nM. The fusion protein samples were mixed with VEGF165 (8 ng/mL), and the mixtures were incubated overnight at room temperature. The wells were then washed with 200 μL of 1×PBS.
100 μL of the VEGF165/sample mixture were added to each well, and the plates were incubated for 72 hours at 37° C. with 5% CO2. […]
The OD of each well was determined using an ELISA plate reader at an absorbance wavelength of 490 nm. […]

Chain of integrin αvβ3 (P06756 31-889 limits assumed): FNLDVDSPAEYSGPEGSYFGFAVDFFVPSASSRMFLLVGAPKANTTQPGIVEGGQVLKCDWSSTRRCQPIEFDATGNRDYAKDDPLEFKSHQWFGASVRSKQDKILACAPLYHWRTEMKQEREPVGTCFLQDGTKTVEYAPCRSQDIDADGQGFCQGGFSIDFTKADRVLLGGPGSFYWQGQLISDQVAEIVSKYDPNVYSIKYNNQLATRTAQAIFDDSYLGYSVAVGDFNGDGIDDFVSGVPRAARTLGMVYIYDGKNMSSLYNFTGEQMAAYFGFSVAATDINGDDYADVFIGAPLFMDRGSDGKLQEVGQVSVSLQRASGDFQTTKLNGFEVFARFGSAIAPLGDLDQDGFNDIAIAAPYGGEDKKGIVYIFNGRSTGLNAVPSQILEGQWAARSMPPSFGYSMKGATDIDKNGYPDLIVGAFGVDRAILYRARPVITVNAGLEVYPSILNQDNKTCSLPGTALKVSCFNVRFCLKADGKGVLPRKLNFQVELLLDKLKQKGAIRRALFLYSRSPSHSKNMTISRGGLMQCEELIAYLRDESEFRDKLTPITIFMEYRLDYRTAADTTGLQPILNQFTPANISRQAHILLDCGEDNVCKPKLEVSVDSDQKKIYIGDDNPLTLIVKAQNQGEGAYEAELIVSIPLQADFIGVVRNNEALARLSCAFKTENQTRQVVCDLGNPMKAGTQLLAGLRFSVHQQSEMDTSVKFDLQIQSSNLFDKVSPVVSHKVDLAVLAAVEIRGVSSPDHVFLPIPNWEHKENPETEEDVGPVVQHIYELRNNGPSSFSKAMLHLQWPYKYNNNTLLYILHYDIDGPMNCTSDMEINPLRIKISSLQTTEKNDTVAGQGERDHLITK
Chain of integrin αvβ3 (P06756 891-992 limits assumed): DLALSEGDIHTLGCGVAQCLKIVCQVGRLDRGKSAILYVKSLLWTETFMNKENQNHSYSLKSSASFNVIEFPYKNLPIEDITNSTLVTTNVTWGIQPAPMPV
Chain of integrin αvβ3 (P05106 27-718 limits assumed): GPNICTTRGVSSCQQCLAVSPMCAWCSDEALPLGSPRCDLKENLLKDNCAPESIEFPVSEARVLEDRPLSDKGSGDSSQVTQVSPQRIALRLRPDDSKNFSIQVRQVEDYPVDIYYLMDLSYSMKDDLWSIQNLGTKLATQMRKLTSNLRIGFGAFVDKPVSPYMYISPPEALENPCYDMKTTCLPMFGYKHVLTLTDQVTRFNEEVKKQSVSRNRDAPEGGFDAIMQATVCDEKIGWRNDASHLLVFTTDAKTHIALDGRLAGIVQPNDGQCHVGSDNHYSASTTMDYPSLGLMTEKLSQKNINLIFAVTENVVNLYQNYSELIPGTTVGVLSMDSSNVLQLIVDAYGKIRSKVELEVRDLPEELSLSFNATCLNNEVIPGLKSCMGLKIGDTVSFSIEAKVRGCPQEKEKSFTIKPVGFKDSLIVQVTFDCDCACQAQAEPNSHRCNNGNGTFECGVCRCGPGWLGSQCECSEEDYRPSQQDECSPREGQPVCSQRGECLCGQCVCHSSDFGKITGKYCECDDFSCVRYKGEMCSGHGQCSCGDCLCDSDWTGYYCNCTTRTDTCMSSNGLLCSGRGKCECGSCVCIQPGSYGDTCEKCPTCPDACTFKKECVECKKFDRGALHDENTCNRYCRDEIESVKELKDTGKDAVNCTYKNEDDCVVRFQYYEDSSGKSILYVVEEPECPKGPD
T1 sequence (P08648 42-894 limits assumed): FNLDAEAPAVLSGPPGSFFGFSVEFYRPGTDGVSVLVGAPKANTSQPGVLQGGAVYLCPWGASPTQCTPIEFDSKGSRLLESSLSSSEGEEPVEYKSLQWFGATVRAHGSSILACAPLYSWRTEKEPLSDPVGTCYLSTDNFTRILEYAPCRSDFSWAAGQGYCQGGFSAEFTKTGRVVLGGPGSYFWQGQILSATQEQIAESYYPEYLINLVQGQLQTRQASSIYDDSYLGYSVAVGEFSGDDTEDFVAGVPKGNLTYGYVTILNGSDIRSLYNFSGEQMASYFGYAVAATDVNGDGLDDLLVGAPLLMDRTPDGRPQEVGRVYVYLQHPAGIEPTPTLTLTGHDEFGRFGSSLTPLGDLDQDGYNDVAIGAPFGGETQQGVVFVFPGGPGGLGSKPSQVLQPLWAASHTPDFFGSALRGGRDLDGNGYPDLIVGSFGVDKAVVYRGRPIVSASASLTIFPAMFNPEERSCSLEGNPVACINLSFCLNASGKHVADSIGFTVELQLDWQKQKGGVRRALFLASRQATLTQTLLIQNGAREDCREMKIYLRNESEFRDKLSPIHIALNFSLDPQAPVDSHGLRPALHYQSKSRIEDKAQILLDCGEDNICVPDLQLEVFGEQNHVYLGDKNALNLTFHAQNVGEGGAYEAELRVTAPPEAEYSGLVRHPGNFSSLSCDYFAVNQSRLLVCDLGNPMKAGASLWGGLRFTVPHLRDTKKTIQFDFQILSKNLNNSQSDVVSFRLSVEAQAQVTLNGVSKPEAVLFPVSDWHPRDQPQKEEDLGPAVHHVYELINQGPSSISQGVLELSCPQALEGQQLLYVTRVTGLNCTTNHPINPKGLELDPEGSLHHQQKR
T1 sequence (P08648 895-1049 limits assumed): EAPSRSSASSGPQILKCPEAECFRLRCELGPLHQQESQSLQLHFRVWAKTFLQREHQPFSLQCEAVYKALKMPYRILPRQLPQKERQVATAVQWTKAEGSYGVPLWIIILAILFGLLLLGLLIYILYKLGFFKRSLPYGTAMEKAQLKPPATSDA
T1 sequence (P05556 21-798): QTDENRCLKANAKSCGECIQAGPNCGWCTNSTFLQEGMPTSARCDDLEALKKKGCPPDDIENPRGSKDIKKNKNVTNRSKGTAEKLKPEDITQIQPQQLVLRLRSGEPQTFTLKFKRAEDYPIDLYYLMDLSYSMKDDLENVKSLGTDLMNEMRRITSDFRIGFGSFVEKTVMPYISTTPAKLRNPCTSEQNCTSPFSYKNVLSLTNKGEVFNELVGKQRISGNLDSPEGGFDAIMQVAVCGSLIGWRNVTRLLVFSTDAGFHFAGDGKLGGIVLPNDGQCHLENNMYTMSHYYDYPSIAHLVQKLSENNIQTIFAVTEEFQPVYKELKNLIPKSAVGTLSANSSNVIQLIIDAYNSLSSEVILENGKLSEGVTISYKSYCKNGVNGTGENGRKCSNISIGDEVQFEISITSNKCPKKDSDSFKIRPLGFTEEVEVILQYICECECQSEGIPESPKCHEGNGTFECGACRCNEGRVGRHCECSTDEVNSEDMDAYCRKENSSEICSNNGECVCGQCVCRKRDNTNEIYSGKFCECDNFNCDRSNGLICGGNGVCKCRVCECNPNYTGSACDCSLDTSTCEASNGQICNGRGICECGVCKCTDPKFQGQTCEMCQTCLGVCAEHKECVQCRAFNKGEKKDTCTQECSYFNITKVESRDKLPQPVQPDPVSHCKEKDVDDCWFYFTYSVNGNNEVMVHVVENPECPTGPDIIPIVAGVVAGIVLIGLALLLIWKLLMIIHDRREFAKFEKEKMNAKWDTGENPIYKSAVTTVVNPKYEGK

For the compound Rhodostomin [Positive Control 3], the IC50 was 2.6 to 3.2 nM in assay [1], 252 nM in assay [2] and 24.7 nM in assay [3].
bevacizumab [Positive Control 6]: the “Day 6 Mean Leakage Score” value turned out to be 0.25 in assay [4] (Example 8, intravitreal dose 1250 μg) and 0.17 in assay [5] (Example 9, intravitreal dose 1250 μg).
As for `Cc1ccc(C(=O)Nc2ccc(S(=O)(=O)O)c3cc(S(=O)(=O)O)cc(S(=O)(=O)O)c23)cc1NC(=O)c1cccc(NC(=O)Nc2cccc(C(=O)Nc3cc(C(=O)Nc4ccc(S(=O)(=O)O)c5cc(S(=O)(=O)O)cc(S(=O)(=O)O)c45)ccc3C)c2)c1` [Positive Control 5, Suramin], the IC50 in assay [6] is 15.8 µM.
One may read the EC50 as the concentration giving half of the maximal effect. As to aflibercept [Positive Control 2], the “Day 6 Mean Leakage Score” value came out at 0 in assay [4] (Example 8, intravitreal dose 625 μg) and 0 in assay [5] (Example 9, intravitreal dose 625 μg). Also, the EC50 in assay [7] lay in the range of 0.088 to 0.195 nM. Further, the IC50 in assay [8] was in the range of 0.026 to 0.136 nM.
